Series [1] in a line: Body weight and clinical observations, Pan02 syngeneic model. The settings on record: for Body weight, Mean: oxaliplatin 6 mg/kg i.p. BIW, AT-0174 120 mg/kg p.o. QD Day 7-32. Format: in vivo, mouse. The protocol:
(§1) Female C57BL/6 mice were used in the study, with ad libitum access to rodent food and water throughout the study period.
(§2) Murine pancreatic Pan02 cancer cells were cultured in a 37° C. incubator containing 5% CO2 with 10% FBS in DMEM medium. The cells were sub-cultured within 10 passages before inoculated into the mice. 1*10^6 PANC02 cells in 100 μL serum-free medium mixed with Matrigel (v/v 1:1) were subcutaneously inoculated at the right flank of each mouse under anesthetized with 2-5% isoflurane before inoculation.
Body weight: Mice body weights were measured and recorded three times per week after grouping. Animals were also weighed in the event of accidental death or near-death euthanasia.

The subject of series [2] is immune cells in Pan02 tumors. The experiment in a line: FACS analysis of Pan02 tumors. It counts as in vivo, mouse. The settings on record: Day 34, oxaliplatin 6 mg/kg i.p. BIW, AT-0174 120 mg/kg p.o. QD. Here is the method:
On Day 34, all tumor-bearing mice were sacrificed, and tumors were collected for FACS analysis. FACS panels were:
Panel A: L/D, CD45, CD3, CD4, CD8, CD11b, CD25, IFN-γ, Foxp3.
Panel B: L/D, CD45, CD3, CD11b, NKG2D, F4/80.
Flow cytometry was conducted using a Beckman Cytoflex LX and antibodies from Thermofisher and Biolegend, using standard methods.

A further series concerns Pan02 tumors. Put plainly: Tumor volume, mouse subcutaneous Pan02 syngeneic model of pancreatic cancer. Format: in vivo. The settings on record: for tumor volume, Mean: oxaliplatin 6 mg/kg i.p. BIW, AT-0174 120 mg/kg p.o. QD Day 7-32. Here is the method: as §1, §2
Tumor volume: The tumor volume (V) was calculated as follows: V=(length×width^2)/2. Tumor volume was measured and recorded three times per week after grouping.
The individual relative tumor volume (RTV) was calculated as follows: RTV=Vt/V0, where Vt is the volume on each day, and V0 is the volume at the beginning of the treatment.

The subject of the next series is LLC-CR cells. The note with it: cited from earlier work.
Series [3] has as its system LLC (mouse Lewis lung cancer cells). Put plainly: Growth inhibition of parental LLC cells. Format: cell-based. The note with it: 24 h. The protocol:
Cisplatin resistant mouse cell lines (LLC-CR) were derived from LLC (mouse Lewis lung cancer cells (epidermoid carcinoma), ATCC) through treatment with increasing doses of cisplatin intermittently. LLC-CR clones were maintained in half GI50 dosage concentration. […] The cultures were observed daily and allowed to grow until they reached an initial cell density. […] After the cells recovered from cisplatin toxicity, they were treated again with increasing dosage of cisplatin for 24 h. These cells are seeded at 500-1000 cells per dish and cultured for 5-7 days. Clones are selected and expanded as well as tested for cisplatin sensitivity. Similar processes of exposure are carried out for a third and fourth time to generate higher resistant clones. At the end, the resistance clones (LLC-CR) were maintained in media completed with 1 μg/ml (half GI50 dosage) of cisplatin.

Each structure is given as a SMILES string.

As to `O=C1[O][Pt]2([NH][C@@H]3CCCC[C@H]3[NH]2)[O]C1=O` [Oxaliplatin], the “Body weight, Mean” value in series [1] (Pan02, day 4) was found to be 21.21 g; in series [1] (Pan02, day 11) it was 21.10 g; in series [1] (Pan02, day 25) it was 23.00 g; in series [1] (Pan02, day 28), 22.00 g; in series [1] (Pan02, day 32) it was 22.65 g; in series [1] (Pan02, day 34), 23.31 g. Besides, the “body weight loss / tolerability” value in series [1] (Pan02 model) is reported as “Slight body weight loss”. In series [2], the “CD4+ Tregs” value worked out at 25.40%. In addition, the “CD8+ CD3+ Tcells” value in series [2] was determined as 31.62%. The “tumor volume, Mean” value in the series on Pan02 tumors (Pan02, day 0) is reported as 63.84 mm^3; in the series on Pan02 tumors (Pan02, day 4), 80.36 mm^3; in the series with Pan02 tumors (Pan02, day 7), 108.77 mm^3; in the series on Pan02 tumors (Pan02, day 11) it was 152.24 mm^3; with Pan02 tumors (Pan02, day 14) it was 250.08 mm^3; in the series with Pan02 tumors (Pan02, day 18), 410.18 mm^3. Also, the “tumor volume, Mean” value in the series with Pan02 tumors (Pan02, day 21) is 601.42 mm^3; in the series on Pan02 tumors (Pan02, day 25), 735.54 mm^3; with Pan02 tumors (Pan02, day 28), 912.95 mm^3; in the series with Pan02 tumors (Pan02, day 32), 1316.29 mm^3; with Pan02 tumors (Pan02, day 34), 1507.92 mm^3. The “anti-tumor response” value in the series on Pan02 tumors (Pan02 model, compared with the vehicle group) is “little anti-tumor response”.
`N.N.[Cl][Pt][Cl]` [cisplatin]: the “GI50 concentration in resistant clones” value in the series with LLC-CR cells (LLC-CR cells) is around 2 µg/mL. Further, in the series with LLC-CR cells (LLC-CR versus parental LLC), the “fold resistance of LLC-CR” value was 3-5 fold. Besides, the “50% growth inhibition (GI50) concentration” value in series [3] came to 0.4 µg/mL.

The values are drawn from patent US20250186410A1, “DUAL INHIBITORS OF TRYPTOPHAN DIOXYGENASES (IDO1 AND TDO) AND THEIR USE IN THERAPY” (ANTIDO THERAPEUTICS INTERNATIONAL SÀRL, priority 2022, published 2025).
